Test results from the supplement of paper PMC5303821, “Major sulfonate transporter Soa1 in Saccharomyces cerevisiae and considerable substrate diversity in its fungal family” (Nature Communications, 2017).

Columns and labels:
Conditions in all cases: sulfur source concentration 200 µM; S. cerevisiae S288C/BY sul1Δ sul2Δ soa1Δ with transporter ortholog inserted at SOA1 locus; sulfur-free B medium, 4% glucose, pH 6.5, sole sulfur source
[1] = test system: Metarhizium robertsii_XP_007822519; assay: lag phase before growth; higher = slower start of growth
[2] = test system: Ogataea parapolymorpha_XP_013935289; assay: as above
[3] = test system: Saccharomyces cerevisiae_SOA1; assay: as above
[4] = test system: Saccharomyces eubayanus_SOA1; assay: as above
[5] = test system: Saccharomyces uvarum_SOA1; assay: as above
[6] = test system: Saccharomyces uvarum_SOA2; assay: as above
[7] = test system: Aspergillus nidulans (IAM 2006)_astA; assay: maximal culture density with compound as sole sulfur source (OD600); higher = better growth
[8] = test system: Aspergillus nidulans_CBF74694; assay: as above
[9] = test system: Aspergillus nidulans_CBF80346; assay: as above
[10] = test system: Aspergillus nidulans_XP_660563; assay: as above
[11] = test system: Aspergillus nidulans_XP_660670; assay: as above
[12] = test system: Aspergillus nidulans_XP_661711; assay: as above
[13] = test system: Aspergillus nidulans_XP_661733; assay: as above
[14] = test system: Aspergillus nidulans_XP_681611; assay: as above
[15] = test system: Fusarium oxysporum_ENH65823; assay: as above
[16] = test system: Metarhizium robertsii_XP_007821441; assay: as above
[17] = test system: Metarhizium robertsii_XP_007822519; assay: as above
[18] = test system: Metarhizium robertsii_XP_007823832; assay: as above
[19] = test system: Ogataea parapolymorpha_XP_013932458; assay: as above
[20] = test system: Ogataea parapolymorpha_XP_013935289; assay: as above
[21] = test system: Ogataea parapolymorpha_XP_013936897; assay: as above
[22] = test system: Saccharomyces cerevisiae_SOA1; assay: as above
[23] = test system: Saccharomyces eubayanus_SOA1; assay: as above
[24] = test system: Saccharomyces eubayanus_SOA2; assay: as above
[25] = test system: Saccharomyces uvarum_SOA1; assay: as above
[26] = test system: Saccharomyces uvarum_SOA2; assay: as above
soa1 del [27] = assay: as above
[28] = test system: Aspergillus nidulans (IAM 2006)_astA; assay: maximal growth rate with compound as sole sulfur source (OD600 per h); higher = better growth / uptake of the sulfur source
[29] = test system: Aspergillus nidulans_CBF80346; assay: as above
[30] = test system: Aspergillus nidulans_XP_661733; assay: as above
[31] = test system: Aspergillus nidulans_XP_681611; assay: as above
[32] = test system: Metarhizium robertsii_XP_007823832; assay: as above
[33] = test system: Ogataea parapolymorpha_XP_013932458; assay: as above
[34] = test system: Ogataea parapolymorpha_XP_013935289; assay: as above
[35] = test system: Ogataea parapolymorpha_XP_013936897; assay: as above
[36] = test system: Saccharomyces uvarum_SOA2; assay: as above
soa1 del [37] = assay: as above

| Structure (SMILES) | lag phase before growth [1] [h] | lag phase before growth [2] [h] | lag phase before growth [3] [h] | lag phase before growth [4] [h] | lag phase before growth [5] [h] | lag phase before growth [6] [h] | maximal culture density [7] | maximal culture density [8] | maximal culture density [9] | maximal culture density [10] | maximal culture density [11] | maximal culture density [12] | maximal culture density [13] | maximal culture density [14] | maximal culture density [15] | maximal culture density [16] | maximal culture density [17] | maximal culture density [18] | maximal culture density [19] | maximal culture density [20] | maximal culture density [21] | maximal culture density [22] | maximal culture density [23] | maximal culture density [24] | maximal culture density [25] | maximal culture density [26] | maximal culture density (soa1 del [27]) | maximal growth rate [28] | maximal growth rate [29] | maximal growth rate [30] | maximal growth rate [31] | maximal growth rate [32] | maximal growth rate [33] | maximal growth rate [34] | maximal growth rate [35] | maximal growth rate [36] | maximal growth rate (soa1 del [37]) |
| --- | --- | --- | --- | --- | --- | --- | --- | --- | --- | --- | --- | --- | --- | --- | --- | --- | --- | --- | --- | --- | --- | --- | --- | --- | --- | --- | --- | --- | --- | --- | --- | --- | --- | --- | --- | --- | --- |
| O=S(=O)(O)CO [Hydroxymethane sulfonate] | 7.86 | 6.08 | 6.75 | 7.32 | 6.88 | 11.1 | 1.6 | 0.203 | 0.208 | 0.318 | 0.207 | 0.207 | 0.267 | 0.322 | 0.195 | 1.04 | 1.59 | 1.5 | 0.234 | 1.62 | 0.303 | 1.61 | 1.59 | 1.66 | 1.6 | 1.73 | 0.212 | 0.0343 | 0.00313 | 0.00489 | 0.00603 | 0.038 | 0.00402 | 0.114 | 0.00499 | 0.107 | 0.00406 |
| CSCC[C@H](N)C(=O)O [Methionine] | 4.74 | 4.02 | 5.45 | 3.83 | 3.45 | 4.3 | 1.59 | 1.57 | 1.58 | 1.6 | 1.6 | 1.6 | 1.59 | 1.64 | 1.59 | 1.59 | 1.59 | 1.58 | 1.56 | 1.55 | 1.57 | 1.61 | 1.55 | 1.63 | 1.57 | 1.68 | 1.69 | 0.143 | 0.139 | 0.136 | 0.142 | 0.138 | 0.131 | 0.13 | 0.123 | 0.138 | 0.141 |
| CCCS(=O)(=O)O [Propanesulfonate] | 21.1 | 10.8 | 15.7 | 11.9 | 11.1 | 19 | 0.486 | 0.192 | 0.212 | 0.327 | 0.231 | 0.232 | 0.249 | 0.35 | 0.232 | 0.263 | 1.88 | 0.507 | 0.243 | 1.59 | 0.296 | 1.6 | 1.56 | 1.7 | 1.56 | 1.69 | 0.212 | 0.0176 | 0.00331 | 0.00555 | 0.00692 | 0.0143 | 0.0042 | 0.0825 | 0.00486 | 0.0773 | 0.00415 |
| O=S(O)O [sulfite] | 0.981 | 5.63 | 6.67 | 6.97 | 5.95 | 11 | 1.6 | 0.196 | 0.262 | 0.322 | 0.243 | 0.244 | 0.274 | 0.308 | 0.256 | 0.235 | 1 | 1.56 | 0.285 | 1.61 | 0.284 | 1.6 | 1.58 | 0.645 | 1.61 | 1.44 | 0.222 | 0.104 | 0.00484 | 0.0047 | 0.00588 | 0.0855 | 0.0051 | 0.0989 | 0.00463 | 0.0556 | 0.00378 |
